Test system: MV-4-11 cells
Assay: Gene expression microarray analysis (Affymetrix PrimeView) and GSEA
Format: cell-based, human
Design: RFU PODN (11730768_x_at) / Fold change /veh PODN (11730768_x_at) / RFU LINC00158 (11744669_a_at) / Fold change /veh LINC00158 (11744669_a_at) / RFU DUSP10 (11751237_a_at) / Fold change /veh DUSP10 (11751237_a_at) / RFU ID3 (11757404_x_at) / Fold change /veh ID3 (11757404_x_at) / RFU PLEKHG5 (11737974_s_at) / Fold change /veh PLEKHG5 (11737974_s_at) / RFU LRRC4B (11730491_at) / Fold change /veh LRRC4B (11730491_at) / RFU GIMAP4 (11747438_a_at) / Fold change /veh GIMAP4 (11747438_a_at) / RFU KRT8 (11758183_x_at) / Fold change /veh KRT8 (11758183_x_at) / RFU CNN1 (11734310_a_at) / Fold change /veh CNN1 (11734310_a_at) / RFU VPS37D (11726825_at) / Fold change /veh VPS37D (11726825_at) / RFU C10orf10 (11716522_x_at) / Fold change /veh C10orf10 (11716522_x_at) / RFU KIR2DL2 /// KIR2DL4 /// KIR2DL5A /// KIR2DL5B /// KIR2DS1 /// KIR2DS2 /// KIR2DS3 /// KIR2DS4 /// KIR3DL3 /// KIR3DL3 /// KIR3DS1 (11738374_at) / Fold change /veh KIR2DL2 /// KIR2DL4 /// KIR2DL5A /// KIR2DL5B /// KIR2DS1 /// KIR2DS2 /// KIR2DS3 /// KIR2DS4 /// KIR3DL3 /// KIR3DL3 /// KIR3DS1 (11738374_at) / RFU C1QL1 (11718748_at) / Fold change /veh C1QL1 (11718748_at) / RFU TMPRSS4 (11747572_a_at) / Fold change /veh TMPRSS4 (11747572_a_at) / RFU HAMP (11756126_x_at) / Fold change /veh HAMP (11756126_x_at) / RFU RNFT2 (11725882_a_at) / Fold change /veh RNFT2 (11725882_a_at) / RFU NR4A2 (11747474_a_at) / Fold change /veh NR4A2 (11747474_a_at) / RFU ABCC12 (11746883_a_at) / Fold change /veh ABCC12 (11746883_a_at) / RFU TMEM136 (11760407_x_at) / Fold change /veh TMEM136 (11760407_x_at) / RFU CLDN22 /// WWC2 (11732394_at) / Fold change /veh CLDN22 /// WWC2 (11732394_at) / RFU HLA-DPB1 (11760878_x_at) / Fold change /veh HLA-DPB1 (11760878_x_at) / RFU SPINT1 (11716480_a_at) / Fold change /veh SPINT1 (11716480_a_at) / RFU GAP43 (11754022_s_at) / Fold change /veh GAP43 (11754022_s_at) / RFU A4GNT (11735810_at) / Fold change /veh A4GNT (11735810_at) / RFU PRB3 (11715151_x_at) / Fold change /veh PRB3 (11715151_x_at) / RFU TUBB4B (11761932_at) / Fold change /veh TUBB4B (11761932_at) / RFU CAPN14 (11732068_a_at) / Fold change /veh CAPN14 (11732068_a_at) / RFU TMCC2 (11721928_a_at) / Fold change /veh TMCC2 (11721928_a_at) / RFU IRGQ (11745062_a_at) / Fold change /veh IRGQ (11745062_a_at) / RFU FAM174B (11720279_a_at) / Fold change /veh FAM174B (11720279_a_at) / RFU TMPRSS4 (11748680_a_at) / Fold change /veh TMPRSS4 (11748680_a_at) / RFU FAM212B (11763350_a_at) / Fold change /veh FAM212B (11763350_a_at) / RFU PLEKHG5 (11743358_a_at) / Fold change /veh PLEKHG5 (11743358_a_at) / RFU ZSCAN30 (11745921_a_at) / Fold change /veh ZSCAN30 (11745921_a_at) / RFU CMKLR1 (11741424_a_at) / Fold change /veh CMKLR1 (11741424_a_at) / RFU LOC101060620 /// MAPK8IP1 (11723275_at) / Fold change /veh LOC101060620 /// MAPK8IP1 (11723275_at) / RFU SPTSSB (11747773_x_at) / Fold change /veh SPTSSB (11747773_x_at) / RFU PRSS12 (11739890_at) / Fold change /veh PRSS12 (11739890_at) / RFU BIN1 (11741810_x_at) / Fold change /veh BIN1 (11741810_x_at) / RFU WNT11 (11732464_a_at) / Fold change /veh WNT11 (11732464_a_at) / RFU C10orf10 (11716521_a_at) / Fold change /veh C10orf10 (11716521_a_at) / RFU C5orf56 (11738089_at) / Fold change /veh C5orf56 (11738089_at) / RFU CYB561 (11721691_x_at) / Fold change /veh CYB561 (11721691_x_at) / RFU ANKRD19P (11752326_a_at) / Fold change /veh ANKRD19P (11752326_a_at) / RFU OR2T12 /// OR2T33 /// OR2T8 (11738714_s_at) / Fold change /veh OR2T12 /// OR2T33 /// OR2T8 (11738714_s_at) / RFU VCAN (11748164_a_at) / Fold change /veh VCAN (11748164_a_at) / RFU JSRP1 (11732532_at) / Fold change /veh JSRP1 (11732532_at) / RFU KRTAP10-11 (11738290_x_at) / Fold change /veh KRTAP10-11 (11738290_x_at) / RFU MYO3A (11730013_a_at) / Fold change /veh MYO3A (11730013_a_at) / RFU EBF3 (11725865_a_at) / Fold change /veh EBF3 (11725865_a_at) / RFU CAMK2N1 (11719241_x_at) / Fold change /veh CAMK2N1 (11719241_x_at) / RFU C5orf56 (11738088_a_at) / Fold change /veh C5orf56 (11738088_a_at) / RFU OLFML3 (11715873_a_at) / Fold change /veh OLFML3 (11715873_a_at) / RFU LOC100653217 /// NTM (11731650_a_at) / Fold change /veh LOC100653217 /// NTM (11731650_a_at) / RFU MAPK11 (11762145_a_at) / Fold change /veh MAPK11 (11762145_a_at) / RFU FIZ1 (11724087_x_at) / Fold change /veh FIZ1 (11724087_x_at) / RFU OASL (11726364_x_at) / Fold change /veh OASL (11726364_x_at) / RFU SOX15 (11748057_x_at) / Fold change /veh SOX15 (11748057_x_at) / RFU CD79A (11719716_a_at) / Fold change /veh CD79A (11719716_a_at) / RFU HIST1H1D (11736915_at) / Fold change /veh HIST1H1D (11736915_at) / RFU CASKIN2 (11723855_a_at) / Fold change /veh CASKIN2 (11723855_a_at) / RFU LOC730098 (11760151_x_at) / Fold change /veh LOC730098 (11760151_x_at) / RFU OR4N2 (11742367_at) / Fold change /veh OR4N2 (11742367_at) / RFU PRRT2 (11749266_a_at) / Fold change /veh PRRT2 (11749266_a_at) / RFU SNX32 (11753110_a_at) / Fold change /veh SNX32 (11753110_a_at) / RFU CDHR5 (11726645_a_at) / Fold change /veh CDHR5 (11726645_a_at) / RFU RCAN1 (11760418_a_at) / Fold change /veh RCAN1 (11760418_a_at) / RFU FAM167A (11723789_a_at) / Fold change /veh FAM167A (11723789_a_at) / RFU FAM26E (11764081_at) / Fold change /veh FAM26E (11764081_at) / RFU ISYNA1 (11749810_s_at) / Fold change /veh ISYNA1 (11749810_s_at) / RFU ACY1 (11761880_at) / Fold change /veh ACY1 (11761880_at) / RFU 11764098_at / Fold change /veh 11764098_at / RFU SAMD14 (11745864_x_at) / Fold change /veh SAMD14 (11745864_x_at) / RFU NPB (11741838_a_at) / Fold change /veh NPB (11741838_a_at) / RFU TMPRSS6 (11731388_a_at) / Fold change /veh TMPRSS6 (11731388_a_at) / RFU KRTAP10-2 (11738614_at) / Fold change /veh KRTAP10-2 (11738614_at) / RFU ARHGAP8 /// PRR5-ARHGAP8 (11727945_x_at) / Fold change /veh ARHGAP8 /// PRR5-ARHGAP8 (11727945_x_at) / RFU KRTAP5-7 /// NADSYN1 (11734609_at) / Fold change /veh KRTAP5-7 /// NADSYN1 (11734609_at) / RFU RASL12 (11751679_a_at) / Fold change /veh RASL12 (11751679_a_at) / RFU CDKN2B (11736163_a_at) / Fold change /veh CDKN2B (11736163_a_at) / RFU PRF1 (11729649_at) / Fold change /veh PRF1 (11729649_at) / RFU, ZNF638 /// ZNF638-IT1 / Fold change vs veh, ZNF638 /// ZNF638-IT1 / RFU, PANK3 / Fold change vs veh, PANK3 / RFU, SH3YL1 / Fold change vs veh, SH3YL1 / RFU, ZEB2 / Fold change vs veh, ZEB2 / RFU, NRIP1 / Fold change vs veh, NRIP1 / RFU, PTTG1IP / Fold change vs veh, PTTG1IP / RFU, CAPN2 / Fold change vs veh, CAPN2 / RFU, MED14 / Fold change vs veh, MED14 / RFU, SNORA58 / Fold change vs veh, SNORA58 / RFU, C1orf63 / Fold change vs veh, C1orf63 / RFU, LRRFIP1 / Fold change vs veh, LRRFIP1 / RFU, NDUFAF7 / Fold change vs veh, NDUFAF7 / RFU, SLC12A2 / Fold change vs veh, SLC12A2 / RFU, IBTK / Fold change vs veh, IBTK / RFU, ESF1 / Fold change vs veh, ESF1 / Fold change vs veh, TMEM50B / RFU, TAOK1 / Fold change vs veh, TAOK1 / RFU, ACBD3 / Fold change vs veh, ACBD3 / RFU, TMA16 / Fold change vs veh, TMA16 / RFU, RWDD3 / Fold change vs veh, RWDD3 / RFU, BCAT1 / Fold change vs veh, BCAT1 / RFU, EDEM3 / Fold change vs veh, EDEM3 / RFU, TMEM33 / Fold change vs veh, TMEM33 / RFU, WDR75 / Fold change vs veh, WDR75 / RFU, AHCTF1 / Fold change vs veh, AHCTF1 / RFU, TFRC / Fold change vs veh, TFRC / RFU, ZDHHC17 / Fold change vs veh, ZDHHC17 / RFU, NOM1 / Fold change vs veh, NOM1 / RFU, ARL8B / Fold change vs veh, ARL8B / RFU, ZBTB11 / Fold change vs veh, ZBTB11 / RFU, TAMM41 / Fold change vs veh, TAMM41 / RFU, KIAA1704 /// LOC100996395 / Fold change vs veh, KIAA1704 /// LOC100996395 / RFU, ING1 / Fold change vs veh, ING1 / RFU, TRMT61B / Fold change vs veh, TRMT61B / RFU, FUBP3 / Fold change vs veh, FUBP3 / RFU, TP53 / Fold change vs veh, TP53 / RFU, TNKS2 / Fold change vs veh, TNKS2 / RFU, ZFP14 / Fold change vs veh, ZFP14 / RFU, ACTR2 / Fold change vs veh, ACTR2 / RFU, PPP3R1 / Fold change vs veh, PPP3R1 / RFU, PIK3R1 / Fold change vs veh, PIK3R1 / RFU, HNRNPA1 / Fold change vs veh, HNRNPA1 / RFU, RNF170 / Fold change vs veh, RNF170 / RFU, ZNF28 / Fold change vs veh, ZNF28 / RFU, RNGTT / Fold change vs veh, RNGTT / RFU, OGT / Fold change vs veh, OGT / RFU, BRD1 / Fold change vs veh, BRD1 / RFU, MARS / Fold change vs veh, MARS / RFU, ZNF655 / Fold change vs veh, ZNF655 / RFU, FAHD1 / Fold change vs veh, FAHD1 / RFU, BDP1 / Fold change vs veh, BDP1 / RFU, LRRCC1 / Fold change vs veh, LRRCC1 / RFU, ARID1A / Fold change vs veh, ARID1A / RFU, ZNF146 / Fold change vs veh, ZNF146 / RFU, ZNF330 / Fold change vs veh, ZNF330 / RFU, GPN3 / Fold change vs veh, GPN3 / RFU, C9orf123 / Fold change vs veh, C9orf123 / RFU, N4BP2L2 / Fold change vs veh, N4BP2L2 / RFU, ARFIP1 / Fold change vs veh, ARFIP1 / RFU, FAM179B / Fold change vs veh, FAM179B / RFU, BCL10 / Fold change vs veh, BCL10 / RFU, UHRF1BP1L / Fold change vs veh, UHRF1BP1L / RFU, BET1 / Fold change vs veh, BET1 / RFU, CNOT2 / Fold change vs veh, CNOT2 / RFU, ZNF268 / Fold change vs veh, ZNF268 / Fold change vs veh, ZNF507 / RFU, DGCR2 / Fold change vs veh, DGCR2 / RFU, WDSUB1 / Fold change vs veh, WDSUB1 / Fold change vs veh, HSP90B1 /// MIR3652 / RFU, ADSS / Fold change vs veh, ADSS / RFU, GK / Fold change vs veh, GK / RFU, ZNF148 / Fold change vs veh, ZNF148 / RFU, TAF9 / Fold change vs veh, TAF9 / RFU, SLC1A5 / Fold change vs veh, SLC1A5 / RFU, SLMO2 / Fold change vs veh, SLMO2 / RFU, ABCC4 / Fold change vs veh, ABCC4 / RFU, LOC101060439 /// RAP1B / Fold change vs veh, LOC101060439 /// RAP1B / RFU, RFX7 / Fold change vs veh, RFX7 / RFU, GTPBP10 / Fold change vs veh, GTPBP10 / RFU, CNEP1R1 / Fold change vs veh, CNEP1R1 / RFU, BIVM-ERCC5 /// ERCC5 / Fold change vs veh, BIVM-ERCC5 /// ERCC5 / RFU, ILF3 / Fold change vs veh, ILF3 / RFU 11762660_at / Fold change /veh 11762660_at / RFU VCAN (11757783_s_at) / Fold change /veh VCAN (11757783_s_at) / RFU DDX43 (11728927_at) / Fold change /veh DDX43 (11728927_at) / RFU KRT8 (11758188_x_at) / Fold change /veh KRT8 (11758188_x_at) / RFU NKD1 (11759106_at) / Fold change /veh NKD1 (11759106_at) / RFU SRD5A1 (11742802_a_at) / Fold change /veh SRD5A1 (11742802_a_at) / RFU TPSAB1 /// TPSB2 (11721975_s_at) / Fold change /veh TPSAB1 /// TPSB2 (11721975_s_at) / RFU GSTM3 (11746129_a_at) / Fold change /veh GSTM3 (11746129_a_at) / RFU IL23R (11737362_x_at) / Fold change /veh IL23R (11737362_x_at) / RFU TMEM51 (11727254_a_at) / Fold change /veh TMEM51 (11727254_a_at) / RFU PIWIL2 (11732686_x_at) / Fold change /veh PIWIL2 (11732686_x_at) / RFU ORM1 (11744905_x_at) / Fold change /veh ORM1 (11744905_x_at) / RFU CCDC152 (11743942_at) / Fold change /veh CCDC152 (11743942_at) / RFU ECM1 (11717891_a_at) / Fold change /veh ECM1 (11717891_a_at) / RFU IL23R (11748794_a_at) / Fold change /veh IL23R (11748794_a_at) / RFU TNFAIP8L3 (11732012_x_at) / Fold change /veh TNFAIP8L3 (11732012_x_at) / RFU MBOAT4 (11741988_at) / Fold change /veh MBOAT4 (11741988_at) / RFU 11764193_at / Fold change /veh 11764193_at / RFU TMEM53 (11763286_at) / Fold change /veh TMEM53 (11763286_at) / RFU MAGEB2 (11727129_at) / Fold change /veh MAGEB2 (11727129_at) / RFU TMEM200A (11744735_a_at) / Fold change /veh TMEM200A (11744735_a_at) / RFU CCDC152 (11751479_a_at) / Fold change /veh CCDC152 (11751479_a_at) / RFU FAM211A (11726209_a_at) / Fold change /veh FAM211A (11726209_a_at) / RFU RGS16 (11746705_a_at) / Fold change /veh RGS16 (11746705_a_at) / RFU VCAN (11755009_s_at) / Fold change /veh VCAN (11755009_s_at) / RFU RHOB (11743442_s_at) / Fold change /veh RHOB (11743442_s_at) / RFU RGS16 (11720943_a_at) / Fold change /veh RGS16 (11720943_a_at) / RFU RGS16 (11720944_at) / Fold change /veh RGS16 (11720944_at) / RFU, VPS4B / Fold change vs veh, VPS4B / RFU, CREB1 / Fold change vs veh, CREB1 / RFU, DNAJC13 / Fold change vs veh, DNAJC13 / RFU, GNAQ / Fold change vs veh, GNAQ / RFU, CDK5R1 / Fold change vs veh, CDK5R1 / RFU, ZRANB3 / Fold change vs veh, ZRANB3 / RFU, CUL4A / Fold change vs veh, CUL4A / RFU, CCNY / Fold change vs veh, CCNY / RFU, UFL1 / Fold change vs veh, UFL1 / RFU, COG3 / Fold change vs veh, COG3 / RFU, DIAPH2 / Fold change vs veh, DIAPH2 / RFU, SKA2 / Fold change vs veh, SKA2 / RFU, AFF3 / Fold change vs veh, AFF3 / RFU, LMF1 / Fold change vs veh, LMF1 / RFU, IPO11 / Fold change vs veh, IPO11 / RFU, DFFB / Fold change vs veh, DFFB / RFU, FOXP1 / Fold change vs veh, FOXP1 / RFU, CARD8 / Fold change vs veh, CARD8 / RFU, STRN3 / Fold change vs veh, STRN3 / RFU, ADK / Fold change vs veh, ADK / RFU, RASSF2 / Fold change vs veh, RASSF2 / RFU, WIPF1 / Fold change vs veh, WIPF1 / RFU, LARP1B / Fold change vs veh, LARP1B / RFU, RASA1 / Fold change vs veh, RASA1 / RFU, RB1 / Fold change vs veh, RB1 / RFU, PPFIA1 / Fold change vs veh, PPFIA1 / RFU, MAT2A / Fold change vs veh, MAT2A / RFU, CCT5 / Fold change vs veh, CCT5 / RFU, WDR92 / Fold change vs veh, WDR92 / RFU, CUX1 / Fold change vs veh, CUX1 / RFU, TTC7A / Fold change vs veh, TTC7A / RFU, TMEM135 / Fold change vs veh, TMEM135 / RFU, DEPTOR / Fold change vs veh, DEPTOR / RFU, CPM / Fold change vs veh, CPM / RFU, DNAJB6 / Fold change vs veh, DNAJB6 / RFU, CACNA2D3 / Fold change vs veh, CACNA2D3 / RFU, DTX4 / Fold change vs veh, DTX4 / RFU, TFCP2 / Fold change vs veh, TFCP2 / RFU, GMCL1 /// GMCL1P1 / Fold change vs veh, GMCL1 /// GMCL1P1 / RFU, AEBP2 / Fold change vs veh, AEBP2 / RFU, SNHG1 /// SNORD22 /// SNORD25 /// SNORD26 /// SNORD27 /// SNORD28 /// SNORD29 /// SNORD31 / Fold change vs veh, SNHG1 /// SNORD22 /// SNORD25 /// SNORD26 /// SNORD27 /// SNORD28 /// SNORD29 /// SNORD31 / Fold change (Aza/veh), C12orf56 (ProbeSet 11735607_a_at) / Fold change (ACY-1035/veh), C12orf56 (ProbeSet 11735607_a_at) / Fold change (Aza/veh), FGFR1OP (ProbeSet 11751329_s_at) / Fold change (ACY-1035/veh), FGFR1OP (ProbeSet 11751329_s_at) / Fold change (Aza/veh), VPS36 (ProbeSet 11739960_a_at) / Fold change (ACY-1035/veh), VPS36 (ProbeSet 11739960_a_at) / RFU SYPL1 (11715823_x_at) / Fold change /veh SYPL1 (11715823_x_at) / RFU IGFBP7 (11715501_s_at) / Fold change /veh IGFBP7 (11715501_s_at) / RFU REEP3 (11722064_at) / Fold change /veh REEP3 (11722064_at) / RFU IGLL1 (11728026_x_at) / Fold change /veh IGLL1 (11728026_x_at): dose or concentration left out as unconfirmed
Conditions: ProbeSet 11745789_a_at; LIST D

## Nc1ccc(-c2cccs2)cc1NC(=O)c1ccc2c(c1)cc(C1CC1)n2CCN1CCOCC1 [ACY-1035]
  RFU, TMEM135: 185.11 RFU

From PMC5218480 (PLoS ONE, 2017)
